Read-outs that look alike come from different tables or passages of the source.
Columns and labels:
Type in all cases: binding
[1] = biological target: various enzymes (Homo sapiens, UniProt P51955); settings: compound 1 uM
Description: (§1) Ambit profiling was conducted in accordance with the manufacturer's instructions.

[2] = biological target: various enzymes (Homo sapiens, UniProt Q9NYL2); settings: compound 1 uM
Description: as §1

[3] = biological target: T1, various enzymes (Homo sapiens, UniProt Q9NRM7); settings: compound 1 uM
T1 sequence (Q9NRM7 1-1088): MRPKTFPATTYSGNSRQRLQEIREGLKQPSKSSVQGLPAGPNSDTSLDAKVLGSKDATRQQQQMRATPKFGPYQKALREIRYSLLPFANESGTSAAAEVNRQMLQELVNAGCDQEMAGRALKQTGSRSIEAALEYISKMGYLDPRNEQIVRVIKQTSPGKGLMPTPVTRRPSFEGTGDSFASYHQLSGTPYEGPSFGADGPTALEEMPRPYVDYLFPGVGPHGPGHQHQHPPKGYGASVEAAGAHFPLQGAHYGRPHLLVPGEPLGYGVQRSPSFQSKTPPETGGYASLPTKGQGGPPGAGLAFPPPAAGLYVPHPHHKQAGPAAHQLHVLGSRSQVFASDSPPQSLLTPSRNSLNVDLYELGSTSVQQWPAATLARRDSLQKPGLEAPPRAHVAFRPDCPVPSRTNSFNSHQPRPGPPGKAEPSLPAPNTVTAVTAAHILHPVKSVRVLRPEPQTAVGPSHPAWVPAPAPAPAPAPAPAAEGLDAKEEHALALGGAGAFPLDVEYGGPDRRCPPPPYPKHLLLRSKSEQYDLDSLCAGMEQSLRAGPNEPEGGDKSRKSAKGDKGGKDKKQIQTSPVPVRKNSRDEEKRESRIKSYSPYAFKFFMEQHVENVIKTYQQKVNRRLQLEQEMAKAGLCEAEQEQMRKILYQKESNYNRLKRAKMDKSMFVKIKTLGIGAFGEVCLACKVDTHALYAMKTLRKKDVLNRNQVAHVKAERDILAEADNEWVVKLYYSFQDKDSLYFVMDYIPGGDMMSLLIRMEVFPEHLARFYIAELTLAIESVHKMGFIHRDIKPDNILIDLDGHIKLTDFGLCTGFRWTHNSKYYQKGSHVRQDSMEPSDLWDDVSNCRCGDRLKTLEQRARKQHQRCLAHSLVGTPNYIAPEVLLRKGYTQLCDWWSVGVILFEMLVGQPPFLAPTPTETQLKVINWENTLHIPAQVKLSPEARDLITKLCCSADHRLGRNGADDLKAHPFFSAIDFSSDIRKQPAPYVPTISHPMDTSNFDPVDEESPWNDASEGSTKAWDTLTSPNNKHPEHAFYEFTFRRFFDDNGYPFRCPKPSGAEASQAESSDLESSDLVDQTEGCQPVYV
Description: as §1

[4] = biological target: various enzymes (Homo sapiens, UniProt P54762); settings: compound 1 uM
Description: as §1

[5] = biological target: various enzymes (Homo sapiens, UniProt Q5VT25); settings: compound 1 uM
Description: as §1

[6] = biological target: various enzymes (Homo sapiens, UniProt O14578); settings: compound 1 uM
Description: as §1

[7] = biological target: various enzymes (Homo sapiens, UniProt P06213); settings: compound 1 uM
Description: as §1

[8] = biological target: various enzymes (Homo sapiens, UniProt Q9Y2U5); settings: compound 1 uM
Description: as §1

[9] = biological target: various enzymes (Homo sapiens, UniProt Q6DT37); settings: compound 1 uM
Description: as §1

[10] = biological target: various enzymes (Homo sapiens, UniProt Q16288); settings: compound 1 uM
Description: as §1

[11] = biological target: various enzymes (Homo sapiens, UniProt Q96PY6); settings: compound 1 uM
Description: as §1

[12] = biological target: various enzymes (Homo sapiens, UniProt P21860); settings: compound 1 uM
Description: as §1

[13] = biological target: various enzymes (Homo sapiens, UniProt O14920); settings: compound 1 uM
Description: as §1

[14] = biological target: various enzymes (Homo sapiens, UniProt Q04912); settings: compound 1 uM
Description: as §1

[15] = biological target: various enzymes (Homo sapiens, UniProt O75582); settings: compound 1 uM
Description: as §1

[16] = biological target: various enzymes (Homo sapiens, UniProt P28482); settings: compound 1 uM
Description: as §1

[17] = biological target: various enzymes (Homo sapiens, UniProt Q15759); settings: compound 1 uM
Description: as §1

[18] = biological target: various enzymes (Homo sapiens, UniProt P42336, M1043I)
Description: as §1

[19] = biological target: various enzymes (Homo sapiens, UniProt Q6ZN16); settings: compound 1 uM
Description: as §1

[20] = biological target: various enzymes (Homo sapiens, UniProt Q8NEV4); settings: compound 1 uM
Description: as §1

[21] = biological target: various enzymes (Homo sapiens, UniProt Q9UKI8); settings: compound 1 uM
Description: as §1

[22] = biological target: various enzymes (Homo sapiens, UniProt P29317); settings: compound 1 uM
Description: as §1

[23] = biological target: various enzymes (Homo sapiens, UniProt P36888, D835H)
Description: as §1

[24] = biological target: various enzymes (Homo sapiens, UniProt O60331); settings: compound 1 uM
Description: as §1

[25] = biological target: various enzymes (Homo sapiens, UniProt Q13555); settings: compound 1 uM
Description: as §1

[26] = biological target: various enzymes (Homo sapiens, UniProt P27448); settings: compound 1 uM
Description: as §1

[27] = biological target: various enzymes (Homo sapiens, UniProt Q05397); settings: compound 1 uM
Description: as §1

[28] = biological target: various enzymes (Homo sapiens, UniProt P07333); settings: compound 1 uM
Description: as §1

[29] = biological target: various enzymes (Homo sapiens, UniProt Q06418); settings: compound 1 uM
Description: as §1

Sequence of various enzymes (Homo sapiens, UniProt P07333) (P07333 20-972): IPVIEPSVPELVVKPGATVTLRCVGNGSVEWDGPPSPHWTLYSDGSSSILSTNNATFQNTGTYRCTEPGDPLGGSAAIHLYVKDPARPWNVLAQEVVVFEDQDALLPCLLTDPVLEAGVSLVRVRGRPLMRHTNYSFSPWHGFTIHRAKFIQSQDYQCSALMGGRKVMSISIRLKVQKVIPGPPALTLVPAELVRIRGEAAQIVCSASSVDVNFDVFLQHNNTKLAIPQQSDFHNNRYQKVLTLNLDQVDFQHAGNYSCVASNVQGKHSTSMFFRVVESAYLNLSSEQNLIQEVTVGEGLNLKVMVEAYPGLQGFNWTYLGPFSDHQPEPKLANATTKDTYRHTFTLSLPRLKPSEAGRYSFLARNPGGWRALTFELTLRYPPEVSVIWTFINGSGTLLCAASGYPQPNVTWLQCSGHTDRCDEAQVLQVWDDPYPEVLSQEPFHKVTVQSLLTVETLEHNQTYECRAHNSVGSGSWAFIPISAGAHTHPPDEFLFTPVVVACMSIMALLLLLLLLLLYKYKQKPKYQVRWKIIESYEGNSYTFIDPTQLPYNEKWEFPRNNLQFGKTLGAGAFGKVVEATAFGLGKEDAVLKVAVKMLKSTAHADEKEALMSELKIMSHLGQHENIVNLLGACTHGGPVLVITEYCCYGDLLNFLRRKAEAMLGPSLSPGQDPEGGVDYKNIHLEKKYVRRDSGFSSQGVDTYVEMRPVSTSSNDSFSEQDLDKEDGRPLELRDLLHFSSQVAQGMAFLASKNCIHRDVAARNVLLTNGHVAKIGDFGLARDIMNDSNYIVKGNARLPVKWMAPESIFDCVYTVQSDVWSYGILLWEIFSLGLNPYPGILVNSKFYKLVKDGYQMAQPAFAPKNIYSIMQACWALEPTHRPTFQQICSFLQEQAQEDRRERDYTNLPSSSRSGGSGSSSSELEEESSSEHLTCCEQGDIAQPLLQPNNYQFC
Sequence of various enzymes (Homo sapiens, UniProt O75582) (O75582 whole entry): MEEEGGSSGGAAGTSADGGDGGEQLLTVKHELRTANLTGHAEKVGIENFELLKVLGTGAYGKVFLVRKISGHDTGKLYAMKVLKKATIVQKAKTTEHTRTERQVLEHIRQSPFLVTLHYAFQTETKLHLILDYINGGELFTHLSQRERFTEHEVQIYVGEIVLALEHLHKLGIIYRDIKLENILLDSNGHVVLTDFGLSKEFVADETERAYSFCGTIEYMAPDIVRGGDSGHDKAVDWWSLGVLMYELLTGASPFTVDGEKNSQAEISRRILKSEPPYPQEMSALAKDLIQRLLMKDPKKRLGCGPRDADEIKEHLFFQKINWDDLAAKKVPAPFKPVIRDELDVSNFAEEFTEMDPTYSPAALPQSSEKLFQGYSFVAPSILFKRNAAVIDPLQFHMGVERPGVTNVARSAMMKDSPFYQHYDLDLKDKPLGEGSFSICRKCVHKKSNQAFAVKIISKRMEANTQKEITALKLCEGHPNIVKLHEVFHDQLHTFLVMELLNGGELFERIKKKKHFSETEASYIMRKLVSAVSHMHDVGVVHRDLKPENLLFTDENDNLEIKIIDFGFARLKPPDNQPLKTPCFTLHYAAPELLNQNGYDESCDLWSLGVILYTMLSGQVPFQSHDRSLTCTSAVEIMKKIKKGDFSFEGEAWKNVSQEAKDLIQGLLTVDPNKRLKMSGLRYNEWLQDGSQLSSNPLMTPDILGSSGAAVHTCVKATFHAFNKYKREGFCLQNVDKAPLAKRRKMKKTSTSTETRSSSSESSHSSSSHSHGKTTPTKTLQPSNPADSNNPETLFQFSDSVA
Sequence of various enzymes (Homo sapiens, UniProt Q5VT25) (Q5VT25 whole entry): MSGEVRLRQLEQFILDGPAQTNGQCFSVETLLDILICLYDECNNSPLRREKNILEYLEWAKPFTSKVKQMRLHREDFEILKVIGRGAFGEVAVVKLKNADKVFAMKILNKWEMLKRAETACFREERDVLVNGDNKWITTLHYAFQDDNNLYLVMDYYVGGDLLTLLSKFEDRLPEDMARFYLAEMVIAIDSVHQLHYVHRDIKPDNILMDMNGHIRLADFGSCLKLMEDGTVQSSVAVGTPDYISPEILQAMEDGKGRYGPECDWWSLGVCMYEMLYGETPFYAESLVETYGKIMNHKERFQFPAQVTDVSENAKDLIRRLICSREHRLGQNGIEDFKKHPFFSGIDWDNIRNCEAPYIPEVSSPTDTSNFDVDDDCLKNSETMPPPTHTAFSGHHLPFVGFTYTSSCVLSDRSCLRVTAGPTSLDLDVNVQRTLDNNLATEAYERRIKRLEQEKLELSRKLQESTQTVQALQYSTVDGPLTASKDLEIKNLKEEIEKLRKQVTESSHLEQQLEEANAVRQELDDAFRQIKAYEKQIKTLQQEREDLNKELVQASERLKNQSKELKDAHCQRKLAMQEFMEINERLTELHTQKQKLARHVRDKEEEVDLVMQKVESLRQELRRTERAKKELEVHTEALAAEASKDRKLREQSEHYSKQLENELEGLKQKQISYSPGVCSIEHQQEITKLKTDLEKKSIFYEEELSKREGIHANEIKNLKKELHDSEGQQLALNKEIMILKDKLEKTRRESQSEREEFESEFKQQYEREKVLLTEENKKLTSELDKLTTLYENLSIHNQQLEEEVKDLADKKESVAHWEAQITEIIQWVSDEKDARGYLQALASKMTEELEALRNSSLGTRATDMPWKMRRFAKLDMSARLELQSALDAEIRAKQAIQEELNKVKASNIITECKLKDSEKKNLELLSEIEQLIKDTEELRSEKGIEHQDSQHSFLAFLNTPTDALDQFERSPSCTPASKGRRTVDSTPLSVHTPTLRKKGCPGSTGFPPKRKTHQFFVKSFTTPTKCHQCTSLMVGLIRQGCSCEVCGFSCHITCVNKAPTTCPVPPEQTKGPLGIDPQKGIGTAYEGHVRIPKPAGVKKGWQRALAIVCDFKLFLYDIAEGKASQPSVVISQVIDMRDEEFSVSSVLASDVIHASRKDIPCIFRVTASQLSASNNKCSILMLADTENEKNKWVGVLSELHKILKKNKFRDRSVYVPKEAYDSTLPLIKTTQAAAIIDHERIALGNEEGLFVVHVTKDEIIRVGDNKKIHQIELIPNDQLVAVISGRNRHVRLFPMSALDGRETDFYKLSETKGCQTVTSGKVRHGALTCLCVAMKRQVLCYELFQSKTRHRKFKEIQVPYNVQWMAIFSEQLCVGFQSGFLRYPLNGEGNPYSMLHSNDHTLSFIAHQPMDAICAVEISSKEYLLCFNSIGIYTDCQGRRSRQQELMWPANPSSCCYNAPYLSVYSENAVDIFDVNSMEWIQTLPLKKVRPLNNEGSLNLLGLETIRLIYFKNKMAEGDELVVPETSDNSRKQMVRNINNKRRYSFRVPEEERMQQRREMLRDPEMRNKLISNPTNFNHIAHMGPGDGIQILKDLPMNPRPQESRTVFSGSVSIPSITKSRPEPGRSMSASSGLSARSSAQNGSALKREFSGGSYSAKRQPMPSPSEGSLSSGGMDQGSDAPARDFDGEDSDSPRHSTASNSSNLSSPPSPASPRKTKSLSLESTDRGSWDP
Sequence of various enzymes (Homo sapiens, UniProt P42336, M1043I) (P42336 whole entry M1043I): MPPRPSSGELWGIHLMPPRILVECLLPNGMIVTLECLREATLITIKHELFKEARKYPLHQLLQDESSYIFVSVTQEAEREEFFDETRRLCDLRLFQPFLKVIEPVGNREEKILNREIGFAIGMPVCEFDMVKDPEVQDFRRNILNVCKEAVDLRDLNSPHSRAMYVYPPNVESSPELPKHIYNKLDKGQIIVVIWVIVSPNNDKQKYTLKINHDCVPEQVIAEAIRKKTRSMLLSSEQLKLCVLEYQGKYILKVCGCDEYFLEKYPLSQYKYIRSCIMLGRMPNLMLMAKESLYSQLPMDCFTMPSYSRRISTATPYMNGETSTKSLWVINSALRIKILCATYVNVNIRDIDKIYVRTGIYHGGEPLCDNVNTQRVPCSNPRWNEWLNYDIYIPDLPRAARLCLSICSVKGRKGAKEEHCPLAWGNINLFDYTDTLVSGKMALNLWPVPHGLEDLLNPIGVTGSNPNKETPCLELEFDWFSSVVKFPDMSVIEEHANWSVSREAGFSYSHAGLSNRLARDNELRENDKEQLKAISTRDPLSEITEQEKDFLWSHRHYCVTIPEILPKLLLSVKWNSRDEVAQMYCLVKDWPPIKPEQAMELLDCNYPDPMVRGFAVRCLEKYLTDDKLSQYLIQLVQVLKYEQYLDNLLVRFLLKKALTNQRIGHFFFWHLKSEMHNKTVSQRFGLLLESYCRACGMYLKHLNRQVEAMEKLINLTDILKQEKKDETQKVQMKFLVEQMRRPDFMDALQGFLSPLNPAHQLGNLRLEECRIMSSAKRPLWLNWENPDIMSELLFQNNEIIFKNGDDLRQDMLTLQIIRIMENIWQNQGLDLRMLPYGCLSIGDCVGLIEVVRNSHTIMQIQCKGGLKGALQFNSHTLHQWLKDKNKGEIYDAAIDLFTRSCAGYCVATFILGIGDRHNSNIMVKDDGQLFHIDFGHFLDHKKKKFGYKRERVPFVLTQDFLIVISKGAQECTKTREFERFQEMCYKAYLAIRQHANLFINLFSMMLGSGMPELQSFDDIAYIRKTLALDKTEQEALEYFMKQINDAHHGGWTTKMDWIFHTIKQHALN
Sequence of various enzymes (Homo sapiens, UniProt Q13555) (Q13555 whole entry): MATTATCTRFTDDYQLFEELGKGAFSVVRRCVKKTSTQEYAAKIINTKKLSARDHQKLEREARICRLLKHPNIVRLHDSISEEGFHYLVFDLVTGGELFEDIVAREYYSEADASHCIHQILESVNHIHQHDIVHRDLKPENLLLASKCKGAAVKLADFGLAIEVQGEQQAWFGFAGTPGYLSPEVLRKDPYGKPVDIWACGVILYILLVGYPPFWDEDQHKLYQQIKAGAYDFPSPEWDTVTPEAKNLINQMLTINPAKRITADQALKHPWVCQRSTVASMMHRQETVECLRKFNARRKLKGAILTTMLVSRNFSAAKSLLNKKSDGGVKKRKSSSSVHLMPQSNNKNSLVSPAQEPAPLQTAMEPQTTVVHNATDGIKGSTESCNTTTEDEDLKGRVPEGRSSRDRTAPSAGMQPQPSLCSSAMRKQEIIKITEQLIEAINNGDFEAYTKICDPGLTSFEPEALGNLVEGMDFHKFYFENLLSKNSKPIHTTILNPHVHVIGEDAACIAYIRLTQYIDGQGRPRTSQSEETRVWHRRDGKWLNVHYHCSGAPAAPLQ

SMILES	Ambit profiling: NEK2 [1]	Ambit profiling: ZAK [2]	Ambit profiling: LATS2 [3]	Ambit profiling: EPHB1 [4]	Ambit profiling: MRCKA [5]	Ambit profiling: CIT [6]	Ambit profiling: INSR [7]	Ambit profiling: MAP3K2 [8]	Ambit profiling: DMPK2 [9]	Ambit profiling: TRKC [10]	Ambit profiling: NEK1 [11]	Ambit profiling: ERBB3 [12]	Ambit profiling: IKK-beta [13]	Ambit profiling: MST1R [14]	Ambit profiling: RPS6KA5(Kin.Dom.1-N-terminal) [15]	Ambit profiling: RPS6KA5(Kin.Dom.2-C-terminal) [15]	Ambit profiling: ERK2 [16]	Ambit profiling: p38-beta [17]	Ambit profiling: MAP3K15 [19]	Ambit profiling: MYO3A [20]	further results
CC(C)N1Cc2nn(C)cc2-c2cnc3[nH]cc(c3c2)-c2cn(nc2C(F)(F)F)CCCC1=O [Compound 45, (Z)-5-isopropyl-31-methyl-13-(trifluoromethyl)-11H,21H,31H-5-aza-2(3,5)-pyrrolo[2,3-b]pyridina-1(4,1),3(4,3)-dipyrazolacyclononaphan-6-one]	49	45	100	51	100	17	43	0.45	53	0.1	100	100	100	70	70	100	100	100	84	23	Ambit profiling: PIK3CA(M1043I) ([18]; compound 1 uM): 81; Ambit profiling: TLK1 [21]: 55; Ambit profiling: EPHA2 [22]: 48; Ambit profiling: FLT3(D835H) ([23]; compound 1 uM): 1.6; Ambit profiling: PIP5K1C [24]: 5.8; Ambit profiling: CAMK2G [25]: 24; Ambit profiling: MARK3 [26]: 32; Ambit profiling: FAK [27]: 20; Ambit profiling: CSF1R [28]: 8.4; Ambit profiling: CSF1R-autoinhibited [28]: 39; Ambit profiling: TYRO3 [29]: 87
COc1c2c(nn1C)CN(C(C)C)C(=O)CCCn1cc(c(C(F)(F)F)n1)-c1c[nH]c3ncc-2cc13 [Compound 50, (Z)-5-isopropyl-35-methoxy-31-methyl-13-(trifluoromethyl)-11H,21H,31H-5-aza-2(3,5)-pyrrolo[2,3-b]pyridina-1(4,1),3(4,3)-dipyrazolacyclononaphan-6-one]	68	58	97	48	99	31	22	0.5	47	0	71	100	87	42	18	72	87	83	76	11	Ambit profiling: PIK3CA(M1043I) [18]: 86; Ambit profiling: TLK1 [21]: 58; Ambit profiling: EPHA2 [22]: 56; Ambit profiling: FLT3(D835H) [23]: 2.8; Ambit profiling: PIP5K1C [24]: 32; Ambit profiling: CAMK2G [25]: 31; Ambit profiling: MARK3 [26]: 43; Ambit profiling: FAK [27]: 5.3; Ambit profiling: CSF1R [28]: 3.3; Ambit profiling: CSF1R-autoinhibited [28]: 27; Ambit profiling: TYRO3 [29]: 99
